Series [1] addresses T1, Kappa-type opioid receptor (Homo sapiens, UniProt P41145). Briefly: SAR analysis of Agonists of the Kappa Opioid Receptor (KOR) using an Image-Based Assay - Set 2. [Related pubchem assays (depositor defined):AID1777, AID1786, AID1966, AID2133, AID2136, AID2284, AID2285, AID2359]. It counts as functional.
Series [2] has as its target T1, Kappa-type opioid receptor. Nature of the series: SAR analysis of small molecule agonists of the kappa opioid receptor via a luminescent beta-arrestin assay - Set 2. [Related pubchem assays (depositor defined):AID1777, AID1785, AID1786, AID1966, AID2133, AID2136, AID2284, AID449737]. It is filed as functional.
Series [3] concerns the target T1, Kappa-type opioid receptor. Nature of the series: SAR analysis of Antagonists of the Kappa Opioid Receptor (KOR) using an Image-Based Assay - Set 2. [Related pubchem assays (depositor defined):AID1777, AID1785, AID1786, AID1966, AID2133, AID2136, AID2284, AID2285, AID2348]. It is filed as functional.
Series [4] addresses T2, Delta-type opioid receptor (Homo sapiens, UniProt P41143). Briefly: SAR Analysis of Antagonists of the DOR Receptor using an Image-Based Assay - Set 2. [Related pubchem assays (depositor defined):AID1777, AID1785, AID1786, AID1966, AID2133, AID2136, AID2284, AID2285, AID2357]. It is filed as functional.
Series [5] deals with T3, Mu-type opioid receptor (Homo sapiens, UniProt P35372). Briefly: SAR Analysis of Antagonists of the MOR Receptor using an Image-Based Assay - Set 2. [Related pubchem assays (depositor defined):AID1777, AID1785, AID1786, AID1966, AID2133, AID2136, AID2284, AID2285, AID2420]. It is filed as functional.
T3 sequence (P35372 whole entry): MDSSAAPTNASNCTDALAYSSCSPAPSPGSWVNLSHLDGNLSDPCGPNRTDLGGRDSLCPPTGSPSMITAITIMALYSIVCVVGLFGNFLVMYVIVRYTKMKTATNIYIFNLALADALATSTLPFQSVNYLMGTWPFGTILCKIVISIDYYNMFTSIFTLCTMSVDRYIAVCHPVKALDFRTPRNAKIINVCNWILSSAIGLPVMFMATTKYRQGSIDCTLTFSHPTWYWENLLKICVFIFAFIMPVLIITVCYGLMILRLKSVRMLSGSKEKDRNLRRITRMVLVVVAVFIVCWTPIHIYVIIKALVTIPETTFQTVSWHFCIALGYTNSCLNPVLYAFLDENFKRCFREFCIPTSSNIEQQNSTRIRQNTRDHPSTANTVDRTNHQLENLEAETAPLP
For series [6], the target named is T3, Mu-type opioid receptor. Nature of the series: SAR Analysis of Agonists of the MOR Receptor using an Image-Based Assay - Set 2. [Related pubchem assays (depositor defined):AID1777, AID1785, AID1786, AID1966, AID2133, AID2136, AID2284, AID2285, AID2352]. It is filed as functional.
Series [7] has as its target T2, Delta-type opioid receptor. Briefly: SAR Analysis of Agonists of the DOR Receptor using an Image-Based Assay - Set 2. [Related pubchem assays (depositor defined):AID1777, AID1785, AID1786, AID1966, AID2133, AID2136, AID2284, AID2285, AID2370]. It is filed as functional.
For series [8], the target named is T4, Cannabinoid receptor 1 (Homo sapiens, UniProt P21554). Nature of the series: SAR analysis of antagonists of the Cannabinoid Receptor 1 using an Image-Based Assay - Set 4. [Related pubchem assays (depositor defined):AID2013, AID2026]. It is filed as functional.
T4 sequence (P21554 whole entry): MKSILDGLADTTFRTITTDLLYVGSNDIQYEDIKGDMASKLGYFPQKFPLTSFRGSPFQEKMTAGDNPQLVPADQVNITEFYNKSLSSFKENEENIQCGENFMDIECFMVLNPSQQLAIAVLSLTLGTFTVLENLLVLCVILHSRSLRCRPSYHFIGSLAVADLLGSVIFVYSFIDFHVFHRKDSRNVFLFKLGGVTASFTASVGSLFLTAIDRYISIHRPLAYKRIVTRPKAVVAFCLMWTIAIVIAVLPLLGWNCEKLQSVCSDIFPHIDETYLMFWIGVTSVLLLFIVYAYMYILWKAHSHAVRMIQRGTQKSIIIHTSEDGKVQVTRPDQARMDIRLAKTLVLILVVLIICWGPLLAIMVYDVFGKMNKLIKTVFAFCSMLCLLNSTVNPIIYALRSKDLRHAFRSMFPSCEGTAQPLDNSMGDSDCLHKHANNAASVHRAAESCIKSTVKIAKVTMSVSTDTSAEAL
For series [9], the target named is T5, Cannabinoid receptor 2 (Homo sapiens, UniProt P34972). Nature of the series: SAR analysis of antagonists of the Cannabinoid Receptor 2 using an Image-Based Assay - Set 3. [Related pubchem assays (depositor defined):AID2013, AID2026]. It counts as functional.
T5 sequence (P34972 whole entry): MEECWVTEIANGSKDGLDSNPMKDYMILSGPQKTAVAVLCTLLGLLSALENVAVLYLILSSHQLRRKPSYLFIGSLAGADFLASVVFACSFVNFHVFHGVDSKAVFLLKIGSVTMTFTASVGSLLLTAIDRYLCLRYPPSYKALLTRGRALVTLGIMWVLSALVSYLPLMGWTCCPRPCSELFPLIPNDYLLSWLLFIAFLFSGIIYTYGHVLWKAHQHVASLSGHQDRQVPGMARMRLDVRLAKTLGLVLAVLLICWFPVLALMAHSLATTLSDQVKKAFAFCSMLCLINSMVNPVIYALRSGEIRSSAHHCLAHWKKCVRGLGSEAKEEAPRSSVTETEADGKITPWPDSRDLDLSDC
Series [10] addresses T5, Cannabinoid receptor 2. Nature of the series: SAR analysis of agonists of the Cannabinoid Receptor 2 using an Image-Based Assay - Set 3. [Related pubchem assays (depositor defined):AID2013, AID2026]. It counts as functional.
The target in series [11] is T6, G-protein coupled receptor 35 (Homo sapiens, UniProt Q9HC97). Briefly: SAR analysis of Antagonists of the GPR35 Receptor using an Image-Based Assay - Set 6. [Related pubchem assays (depositor defined):AID2013, AID2026]. It is filed as functional.
T6 sequence (Q9HC97 whole entry): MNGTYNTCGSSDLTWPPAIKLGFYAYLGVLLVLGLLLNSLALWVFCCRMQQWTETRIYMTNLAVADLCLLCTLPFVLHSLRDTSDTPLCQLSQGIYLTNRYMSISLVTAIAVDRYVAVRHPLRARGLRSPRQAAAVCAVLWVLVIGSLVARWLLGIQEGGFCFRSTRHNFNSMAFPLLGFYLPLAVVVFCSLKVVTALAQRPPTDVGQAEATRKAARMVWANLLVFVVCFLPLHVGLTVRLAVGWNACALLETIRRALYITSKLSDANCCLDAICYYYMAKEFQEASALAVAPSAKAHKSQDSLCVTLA
In series [12] the target is G-protein coupled receptor 55 (Homo sapiens, UniProt Q9Y2T6). Nature of the series: SAR Analysis of Selective Antagonists of GPR55 using an Image-Based Assay - Set 4. [Related pubchem assays (depositor defined):AID2013, AID2026]. It counts as functional.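 Further: antagonism of response to 5 µM lysophosphatidylinositol agonist.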
Chain of G-protein coupled receptor 55 (Q9Y2T6 whole entry): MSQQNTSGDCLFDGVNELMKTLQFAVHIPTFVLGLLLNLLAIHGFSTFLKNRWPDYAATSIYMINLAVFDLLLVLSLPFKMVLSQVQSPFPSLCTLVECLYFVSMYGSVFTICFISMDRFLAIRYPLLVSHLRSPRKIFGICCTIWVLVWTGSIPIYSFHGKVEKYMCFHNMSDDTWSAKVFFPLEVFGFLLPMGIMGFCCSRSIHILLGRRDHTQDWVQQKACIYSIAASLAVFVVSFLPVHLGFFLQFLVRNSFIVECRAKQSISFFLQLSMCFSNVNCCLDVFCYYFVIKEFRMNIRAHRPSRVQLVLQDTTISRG
The target in series [13] is T4, Cannabinoid receptor 1. Nature of the series: SAR analysis of agonists of the Cannabinoid Receptor 1 using an Image-Based Assay - Set 4. [Related pubchem assays (depositor defined):AID2013, AID2026]. It is filed as functional.
In series [14] the target is T6, G-protein coupled receptor 35. Nature of the series: SAR analysis of Agonists of the GPR35 Receptor using an Image-Based Assay - Set 4. [Related pubchem assays (depositor defined):AID2013, AID2026]. It is filed as functional.
The target in series [15] is Glucose-6-phosphate 1-dehydrogenase (Homo sapiens, UniProt P11413). Briefly: inhibition of Homo sapiens G6PD, dose series – biochemical, fluorescence, selectivity assay for P. falciparum G6PD inhibitor project, dose response (AID 504792). It counts as functional.
Chain of Glucose-6-phosphate 1-dehydrogenase (P11413 whole entry): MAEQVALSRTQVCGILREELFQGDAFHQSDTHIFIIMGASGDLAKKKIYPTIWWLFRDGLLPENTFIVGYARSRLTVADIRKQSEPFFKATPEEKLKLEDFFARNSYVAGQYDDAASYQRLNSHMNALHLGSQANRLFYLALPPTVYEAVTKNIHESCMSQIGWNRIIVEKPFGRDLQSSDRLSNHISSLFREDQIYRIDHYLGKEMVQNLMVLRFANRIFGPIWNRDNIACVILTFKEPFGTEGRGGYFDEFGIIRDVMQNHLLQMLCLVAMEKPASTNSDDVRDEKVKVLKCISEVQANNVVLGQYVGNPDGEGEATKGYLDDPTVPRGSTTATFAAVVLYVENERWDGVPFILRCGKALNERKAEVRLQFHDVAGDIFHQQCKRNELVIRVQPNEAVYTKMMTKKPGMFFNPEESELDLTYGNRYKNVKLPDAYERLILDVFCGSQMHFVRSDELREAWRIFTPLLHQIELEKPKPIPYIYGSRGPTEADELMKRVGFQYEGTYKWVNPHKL
In a further series the target is T7, Cytochrome P450 1A2 (Homo sapiens, UniProt P05177).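 Further: PubChem cytochrome P450 panel assay, CYP1A2 panel member.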
T7 sequence (P05177 whole entry): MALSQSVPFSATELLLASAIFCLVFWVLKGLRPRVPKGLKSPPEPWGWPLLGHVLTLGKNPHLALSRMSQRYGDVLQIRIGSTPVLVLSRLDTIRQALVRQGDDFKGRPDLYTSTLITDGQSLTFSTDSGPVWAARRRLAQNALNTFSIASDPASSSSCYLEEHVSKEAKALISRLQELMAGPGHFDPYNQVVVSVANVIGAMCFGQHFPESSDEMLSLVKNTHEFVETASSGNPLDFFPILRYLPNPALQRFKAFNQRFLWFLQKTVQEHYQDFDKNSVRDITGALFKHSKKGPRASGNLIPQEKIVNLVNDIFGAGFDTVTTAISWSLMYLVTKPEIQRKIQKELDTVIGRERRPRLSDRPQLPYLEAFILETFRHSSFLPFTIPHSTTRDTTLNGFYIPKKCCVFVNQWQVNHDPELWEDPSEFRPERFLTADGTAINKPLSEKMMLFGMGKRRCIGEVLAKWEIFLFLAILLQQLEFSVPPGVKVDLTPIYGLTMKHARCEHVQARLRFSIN

Series [16] in a line: T. cruzi infection blockers in NIH3T3 cells – beta-gal luminescence, NIH3T3 host cells, confirmation (AID 2630). It counts as functional, cell-based. The settings on record: Mus musculus.

We go through 5 compounds from ChEMBL document CHEMBL1201862, “PubChem BioAssay data set” (2004).

Structures are written as SMILES. Calls of active or inactive are those of the source. Unless noted, the calls are words filed in the database; no cut-off is given here. A value given as a limit tells only on which side of the number the result lay.

T1 sequence (P41145 whole entry): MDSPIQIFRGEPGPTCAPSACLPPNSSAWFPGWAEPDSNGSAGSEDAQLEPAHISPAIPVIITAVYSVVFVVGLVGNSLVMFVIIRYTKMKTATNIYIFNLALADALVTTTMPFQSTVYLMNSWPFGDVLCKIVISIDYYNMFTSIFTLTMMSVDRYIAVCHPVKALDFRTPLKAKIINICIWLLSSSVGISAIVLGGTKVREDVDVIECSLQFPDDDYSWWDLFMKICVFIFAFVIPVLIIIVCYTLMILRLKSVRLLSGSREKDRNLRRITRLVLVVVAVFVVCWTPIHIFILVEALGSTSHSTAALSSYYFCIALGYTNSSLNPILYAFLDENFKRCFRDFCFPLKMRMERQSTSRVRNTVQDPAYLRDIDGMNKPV
T2 sequence (P41143 whole entry): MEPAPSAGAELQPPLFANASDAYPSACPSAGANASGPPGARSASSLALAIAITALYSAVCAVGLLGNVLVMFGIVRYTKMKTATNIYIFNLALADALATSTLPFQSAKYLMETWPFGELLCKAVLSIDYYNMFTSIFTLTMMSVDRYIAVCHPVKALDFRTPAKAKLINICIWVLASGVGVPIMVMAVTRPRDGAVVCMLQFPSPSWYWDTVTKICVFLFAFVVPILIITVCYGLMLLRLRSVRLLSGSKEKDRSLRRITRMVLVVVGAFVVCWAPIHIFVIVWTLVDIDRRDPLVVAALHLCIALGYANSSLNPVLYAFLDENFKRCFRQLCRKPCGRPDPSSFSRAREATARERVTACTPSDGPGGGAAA

Usually EC50 stands for the midpoint of the concentration-response curve. A word on the IC50: it is the point on the concentration scale where inhibition reaches its midpoint. Take `Cc1ccc(CSc2nnc(-c3ccccn3)n2Cc2cccs2)cc1`: the EC50 is 2.38 µM (active) in series [1], 3.59 µM (active) in series [2], > 32 µM (inactive) at Mu-type opioid receptor [6] and > 32 µM (inactive) in series [7]. Further, the IC50 (in series [3]; in series [4]; on Mu-type opioid receptor [5]) was > 32 µM (inactive) in each case.

As to `Cc1nc(N2CCN(C(=O)COc3ccccc3C)CC2)c2c3c(sc2n1)CCCC3`, the IC50 at Cannabinoid receptor 1 [8] is 2.22 µM (active); at Cannabinoid receptor 2 [9], > 13.1 µM (inactive); in series [11], > 32 µM (inactive); in [12] it was 13.1 µM (inactive). Further, the EC50 (at Cannabinoid receptor 2 [10]; on Cannabinoid receptor 1 [13]; in series [14]) was > 32 µM (inactive) each time.

In the case of `COc1ccc(NC(C)C(=O)N/N=C/c2cc(Br)ccc2OC)cc1` (configuration not stated), the IC50 in [15] was > 80 µM (inactive).

For `C[N+]1([C@H](CO)Cc2c[nH]c3ccccc23)Cc2ccccc2C1.O=S(=O)([O-])c1ccccc1`, the AC50 result on Cytochrome P450 1A2 was “inactive”.

Regarding `Cc1cc(C)n(CC(=O)N2CCCC(C(=O)c3cccc(OC(C)C)c3)C2)n1` (configuration not stated), in [16], the EC50 is 14.1 µM (active).
